Test results: patent publication US11607383B2, “Conductive polymer microneedle arrays for electronically-controlled drug release” (University of Washington, priority 2019, dated 2023)

Tests used:
BV2 murine microglia = assay type: cell-based; conditions: subdural solution, DC experiment, 3 days incubation
Protocol: Bioactivity of electrically released drug was tested in an in vitro neuroinflammation model, in which drugs were released into wells of activated BV2 murine microglia. Healthy BV2 cells were seeded in 12-well plates at a density of 100,000 cells/well, in 1.6 mL of Dulbecco's modified eagle media (DMEM, Gibco) with 4.5 g/L D-glucose, 584 mg/L L-glutamine, and 110 mg/L sodium pyruvate (Invitrogen). The DMEM was supplemented with 5% fetal bovine serum (Invitrogen) and 2% anti-mycotic/anti-biotic (Invitrogen). Following seeding, the cells were incubated at 37° C. overnight to allow for settling and adhesion. Cells in activated treatment groups were activated by the replacement of media with fresh DMEM containing 0.005% interferon gamma (Ifn-γ, Invitrogen) and 1% lipopolysaccharide (LPS, ThermoFisher). Unactivated controls received normal fresh DMEM. Cells were then incubated for 1 hour before application of treatment in groups of n=6, in order to simulate realistic conditions in which there is a duration between traumatic SCI occurrence and access to treatment. […]
Cell viability was measured using an MTS assay (CellTiter 96® AQueous One Solution Cell Proliferation Assay, Promega). […] The incubation was followed by detection of absorbance at 490 nm. The MTS absorbance in each group was normalized to the absorbance of the unactivated group.

[1] = tested on: activated BV2 murine microglia; experiment: In vitro neuroinflammation assay (NO by Griess, cytokines by Luminex); assay type: cell-based; conditions: for NO release normalized to viable cells: DC experiment
Protocol: Bioactivity of electrically released drug was tested in an in vitro neuroinflammation model, in which drugs were released into wells of activated BV2 murine microglia. Healthy BV2 cells were seeded in 12-well plates at a density of 100,000 cells/well, in 1.6 mL of Dulbecco's modified eagle media (DMEM, Gibco) with 4.5 g/L D-glucose, 584 mg/L L-glutamine, and 110 mg/L sodium pyruvate (Invitrogen). The DMEM was supplemented with 5% fetal bovine serum (Invitrogen) and 2% anti-mycotic/anti-biotic (Invitrogen). Following seeding, the cells were incubated at 37° C. overnight to allow for settling and adhesion. Cells in activated treatment groups were activated by the replacement of media with fresh DMEM containing 0.005% interferon gamma (Ifn-γ, Invitrogen) and 1% lipopolysaccharide (LPS, ThermoFisher). Unactivated controls received normal fresh DMEM. Cells were then incubated for 1 hour before application of treatment in groups of n=6, in order to simulate realistic conditions in which there is a duration between traumatic SCI occurrence and access to treatment.
Treatment was applied transdurally from microneedles into the cell media though the transdural insert model as previously described in the In Vitro Transdural Release section. Diagrams of experimental conditions can be found in FIGS. 5A-5G. Microneedles were similarly applied manually, then underwent a potentiostatic or cyclic electrical stimulation. Direct current potential was applied for only 2 minutes to minimize electrical imbalance applied to the cells, while delivering sufficient drug to achieve therapeutic effect. Cyclic voltammetry was applied for 15 cycles, equating to 10 minutes. Epidural drug solution controls were similarly applied to the neuroinflammation model by pipetting over the transdural insert. In addition, a subdural solution control was introduced to the neuroinflammation studies in which the Dexa solution is applied directly to the cell media, bypassing the transdural insert.
Following 3 days of incubation, cell media was assayed for markers of inflammation. Free radical nitric oxide (NO) was quantified using a Griess reagent kit (Invitrogen) that detects NO reduced to nitrites in cell medias. Colorimetric NO quantification was performed following the protocols provided in the Griess reagent kit. Pro-inflammatory cytokines were quantified using a Luminex Magpix Multiplexing assay (Millipore). Cytokines quantified include interleukin-1-beta (IL-1β), interleukin-6 (IL-6), and tumor necrosis factor alpha (TNF-α). Cells treated in the CV stimulated experiment were additionally quantified for the release of monocyte chemoattractant protein 1 (MCP-1). The Luminex multiplexing assays were performed following the protocol provided in the kit.

[2] = epidural solution, CV experiment

C[C@@H]1C[C@H]2[C@@H]3CCC4=CC(=O)C=C[C@]4(C)[C@@]3(F)[C@@H](O)C[C@]2(C)[C@@]1(O)C(=O)COP(=O)(O)O [Dexa solution, dexamethasone phosphate]
relative cell viability (MTS) (BV2 murine microglia): slight decreases in viability, though not significant | MCP-1 release normalized for viable cells [1, 2]: did not see the same decrease | NO release normalized for viable cells [1, 2]: did not see similar reductions in NO release | NO release normalized to viable cells ([1]; epidural solution): did not demonstrate the same decrease | NO release normalized to viable cells ([1]; subdural solution): significant decrease
